Test results from ChEMBL document CHEMBL5042484, “Design of SARS-CoV-2 PLpro Inhibitors for COVID-19 Antiviral Therapy Leveraging Binding Cooperativity” (J Med Chem, 2022).

Tested on: SARS-CoV-2
Assay: Antiviral activity against SARS-COV-2 USA/WA1/2020 in human A549 cells overexpressing ACE2 receptor assessed as reduction in viral replication at MOI of 0.01 pretreated for 1 hr followed by viral infection and further incubated for 1 hr measured after 48 hrs by RT-qPCR analysis
Type: functional, organism-based
Conditions: Severe acute respiratory syndrome coronavirus 2, USA/WA1/2020, A549

| Structure (SMILES) | EC50 |
| --- | --- |
| Cc1ccc(NC2CNC2)cc1C(=O)N[C@H](C)c1cccc(-c2ccc(CNC3CCCC3)s2)c1 | 1400 nM |
| Cc1ccc(NC2CNC2)cc1C(=O)N[C@H](C)c1cccc(-c2ccc(CN3CCCC3)s2)c1 | 1200 nM |
| Cc1ccc(N)cc1C(=O)N[C@H](C)c1cccc2ccccc12 | > 20000 nM |
